Source: patent publication US7732200B2, “Materials and methods for nerve grafting, selection of nerve grafts, and in vitro nerve tissue culture” (University of Florida Research Foundation, Inc., priority 2001, dated 2010)

How the values were obtained:
chick DRG neurons = test: Cryoculture assay using human nerve segments; format: cell-based; conditions: DRG neurons 24 h; P<0.001 vs vehicle
Method: Cryoculture bioassay. Cryoculture is a neurite outgrowth assay in which neurons are cultured directly on fresh/frozen nerve sections and was performed as described previously (Ferguson T A et al. [2000] Mol Cell Neurosci, 16:157-167). Briefly, chondroitinase- and vehicle-treated nerve segments were sectioned at 20 μm, mounted on sterile, aminopropyltriethoxysilane (APTS)-coated coverslips and stored at −20° C. until used. Where indicated, sections were treated with chondroitinase ABC (0.1 unit/ml) or vehicle (50 mM Tris-HCl, pH 8.0), containing 50 mM NaCl) for 2 h at 37° C. Purified dorsal root ganglionic (DRG) neurons from day 8 chick embryos were seeded directly on the nerve sections in a defined N2 medium (Bottenstein J E et al. [1980] Exp Cell Res 125:183-190) containing 10 ng/ml nerve growth factor. Cryoculture assays were terminated after 24 h of incubation by fixation with 100% methanol. Neuritic growth by DRG neurons was accessed by GAP-43 immunofluorescent labeling. Epifluorescent photomicrographs were acquired as described for tissue sections. Neurite lengths were measured directly using IMAGE-PRO PLUS software (MEDIA CYBERNETICS, Silver Springs, Md.). At least 250 neurons with neurites greater than one cell body (˜15 μm) were scored for each condition in each experiment. […]

[1] = test system: embryonic chick DRG neurons; test: Cryoculture bioassay of chondroitinase-treated acellular rat nerve segments; format: cell-based
From the text: (§1) Preparation of acellular nerve grafts treated with chondroitinase: Adult (180-200 g) female SPRAGUE DAWLEY rats (HARLAN, Indianapolis, Ind.) were used as nerve donors and recipient hosts. Donor rats were anesthetized with halothane and decapitated. Sciatic nerves were exposed through a gluteal muscle-splitting incision and isolated free of underlying fascia. A 15-mm nerve segment was excised rostral to the bifurcation into common peroneal and tibial nerves. The segments were rinsed with cold sterile Ringer's solution, stabilized by pinning the ends to a thin plastic support, and transferred to a cryogenic vial. The vials were submerged in liquid nitrogen for 2 minutes and then transferred to a 37° C. water bath for 2 minutes. This freeze/thaw cycle was repeated, yielding acellular nerve grafts that were then stored in liquid nitrogen. On the day before grafting, the nerve grafts were warmed to room temperature and incubated in 100 μl phosphate buffered saline pH 7.4 (PBS) containing 2 units/ml chondroitinase ABC (SIGMA, St. Louis, Mo.) or in PBS (vehicle) only for 16 hours at 37° C. The grafts were rinsed twice with Ringer's and kept on ice prior to use. The chondroitinase ABC preparation was highly purified and stated by the manufacturer to be essentially free of protease activity.
Cryoculture bioassay. Cryoculture is a neurite outgrowth assay in which neurons are cultured directly on fresh/frozen nerve sections and was performed as described previously (Ferguson T A et al. [2000] Mol Cell Neurosci, 16:157-167). Briefly, chondroitinase- and vehicle-treated nerve segments were sectioned at 20 μm, mounted on sterile, aminopropyltriethoxysilane (APTS)-coated coverslips and stored at −20° C. until used. Where indicated, sections were treated with chondroitinase ABC (0.1 unit/ml) or vehicle (50 mM Tris-HCl, pH 8.0), containing 50 mM NaCl) for 2 h at 37° C. Purified dorsal root ganglionic (DRG) neurons from day 8 chick embryos were seeded directly on the nerve sections in a defined N2 medium (Bottenstein J E et al. [1980] Exp Cell Res 125:183-190) containing 10 ng/ml nerve growth factor. Cryoculture assays were terminated after 24 h of incubation by fixation with 100% methanol. Neuritic growth by DRG neurons was accessed by GAP-43 immunofluorescent labeling. […] Neurite lengths were measured directly using IMAGE-PRO PLUS software (MEDIA CYBERNETICS, Silver Springs, Md.). At least 250 neurons with neurites greater than one cell body (˜15 μm) were scored for each condition in each experiment.
Inactivation of inhibitory CSPG in chondroitinase-treated acellular nerve was determined by cryoculture bioassay. Embryonic chick DRG neurons were seeded onto sections of prepared nerve segments and the neurite-promoting activity was assessed by scoring neurite growth. […]

CSPG [2] = test: CSPG neoepitope immunolabeling of chondroitinase-treated human nerve segments
From the text: Many of the experiments described in the examples above performed using rat nerves also have been replicated using human nerve. Except where otherwise indicated, the procedures described in Examples 1 and 2 using rat nerve were also followed in Examples 6 and 7 using human nerve. Human sural and tibial nerves were obtained fresh from surgical leg amputation.
Human nerves were first examined to determine if their content of CSPG and laminin was similar to that observed in rat nerves. […] Human nerves stained for CSPG neoepitope and laminin are shown, respectively, in FIGS. 9A and 9B.

CSPG [3] = test: CSPG neoepitope (Ab1918) and laminin immunolabeling of acellular nerve segments treated en bloc; conditions: acellular rat sciatic nerve segments bathed en bloc 16 h, 2 units/ml
From the text: as §1, with “The chondroitinase ABC preparation was highly purified and stated by the manufacturer to be essentially free of protease activity.” left out
Immunocytochemistry. Axonal regeneration was assessed by GAP-43 immunofluorescence and digital image analysis. […]

chondroitinase ABC
growth-promoting properties of human nerves (neurite length) (chick DRG neurons): increased | average neurite length ([1]; acellular nerve pretreated en bloc, DRG neurons 24 h): 96 μm | increase in neurite growth compared to the control condition ([1]; en bloc treatment vs en bloc vehicle): 95% | increase in neurite-promoting activity by post-treatment of sections ([1]; nerve treated en bloc with vehicle only, sections post-treated 0.1 unit/ml 2 h): 86% | effect of post-treatment on sections from en bloc treated nerve ([1]; sections of en bloc chondroitinase-treated nerve grafts): only a slight additive effect | CSPG side chain degradation by neoepitope labeling (CSPG [2]): effectively degraded | CSPG degradation by Ab1918 neoepitope immunostaining (CSPG [3]): thoroughly degraded CSPG side-chains
